Patent US9295732B2, “Conjugated TLR7 and/or TLR8 and TLR2 polycationic agonists” (CAYLA, priority 2013, dated 2016)
“And” between values parts separate entries of the source, which are not always exact repeats. Equal entries are not always repeated.

Columns and labels:
[1] = biological target: T1, human TLR7 (Homo sapiens, UniProt Q9NYK1); test: HEK-Blue hTLR7 NF-κB/AP-1 SEAP reporter assay; assay type: cell-based; conditions: HEK-Blue hTLR7 cells, 10 μg/mL to 10 pg/ml, 24 hours, OD at 655 nm, FIG. 1
T1 construct: host or cells: HEK293 (HEK-Blue™ hTLR7)
T1 sequence (Q9NYK1 27-1049): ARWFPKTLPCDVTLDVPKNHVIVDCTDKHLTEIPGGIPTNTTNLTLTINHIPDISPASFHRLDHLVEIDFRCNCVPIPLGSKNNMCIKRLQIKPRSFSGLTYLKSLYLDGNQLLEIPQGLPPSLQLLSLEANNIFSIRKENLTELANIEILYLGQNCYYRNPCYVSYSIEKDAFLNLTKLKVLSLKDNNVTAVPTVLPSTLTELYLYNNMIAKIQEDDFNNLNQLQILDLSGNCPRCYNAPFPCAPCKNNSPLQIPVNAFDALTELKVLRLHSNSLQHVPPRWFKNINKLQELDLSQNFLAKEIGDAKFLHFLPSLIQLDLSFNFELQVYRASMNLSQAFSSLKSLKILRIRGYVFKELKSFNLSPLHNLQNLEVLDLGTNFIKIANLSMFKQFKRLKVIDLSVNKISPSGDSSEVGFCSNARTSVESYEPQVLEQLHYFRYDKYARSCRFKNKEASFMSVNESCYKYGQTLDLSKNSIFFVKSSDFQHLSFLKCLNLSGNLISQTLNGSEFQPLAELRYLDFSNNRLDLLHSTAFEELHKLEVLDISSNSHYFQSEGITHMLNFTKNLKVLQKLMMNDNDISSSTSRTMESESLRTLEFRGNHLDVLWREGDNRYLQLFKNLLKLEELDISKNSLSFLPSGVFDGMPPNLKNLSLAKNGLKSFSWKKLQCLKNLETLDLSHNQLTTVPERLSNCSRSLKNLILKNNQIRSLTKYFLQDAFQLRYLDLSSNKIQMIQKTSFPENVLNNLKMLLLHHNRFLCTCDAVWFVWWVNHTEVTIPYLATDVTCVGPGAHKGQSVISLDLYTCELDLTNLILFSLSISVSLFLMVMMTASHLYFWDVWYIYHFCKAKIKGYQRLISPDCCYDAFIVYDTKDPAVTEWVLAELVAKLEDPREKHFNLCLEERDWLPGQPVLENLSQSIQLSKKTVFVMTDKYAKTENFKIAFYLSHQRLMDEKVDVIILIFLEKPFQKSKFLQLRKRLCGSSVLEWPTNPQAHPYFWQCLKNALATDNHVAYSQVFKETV
Method: (§1) Cell-based assays were carried out using TLR7 and TLR2 reporter cell lines (InvivoGen). The reporter cell lines are engineered HEK293 cells, a human embryonic kidney cell line (ATCC, CRL-1573) that stably express either murine TLR7 (HEK-Blue™ mTLR7) or human TLR7 (HEK-Blue™ hTLR7) or human TLR2 (HEK-Blue™ hTLR2) with an NF-κB-inducible secreted embryonic alkaline phosphatase (SEAP) as the reporter gene. The SEAP reporter gene is under the control of the NF-κB and AP-1-inducible promoter, which, upon treatment with a corresponding TLR ligand and activation of NF-κB and AP-1, induces the production of SEAP. Detection of SEAP is measured following culturing cells in HEK-Blue™ Detection media (InvivoGen). HEK-Blue™ Detection contains a SEAP substrate that when hydrolysed by SEAP produces a colorimetric change allowing for detection of SEAP as the protein is secreted. […] These assays were carried out using RAW-Blue™ Cells (InvivoGen), derived from RAW 264.7 mouse leukemic monocyte macrophage cell line (ATCC, CRL 2278) stably overexpressing a NF-B/AP-1 inducible SEAP reporter constructs.
(§2) To perform the assay, cells were seeded on 96 well microliter plates at 50,000 or 100,000 cells per well for HEK-Blue™ Cells and RAW-Blue™ Cells respectively, and cultured at 37° C. in the presence of the conjugated compounds The TLR7-TLR2 polyamine molecules were prepared as follows: First, stock solutions of the conjugated compounds of the invention were prepared in ethanol or water to a concentration of 10 mg/ml.
(§3) The working dilutions of the conjugated TLR7-TLR2 polyamine agonists made up in water or PBS were directly added to the reporter cell lines at a final concentration ranging from 10 μg/mL to 10 pg/ml and incubated at 37° C. for 24 hours. After 24 hours of incubation, the effect on reporter gene activity was determined by reading the OD at 655 nm using iMark™ Microplate Reader (BIO-RAD).

[2] = biological target: T2, murine TLR7 (Mus musculus, UniProt P58681); test: HEK-Blue mTLR7 NF-κB/AP-1 SEAP reporter assay; assay type: cell-based; conditions: HEK-Blue mTLR7 cells, 10 μg/mL to 10 pg/ml, 24 hours, OD at 655 nm, FIG. 2
T2 construct: host or cells: HEK293 (HEK-Blue™ mTLR7)
T2 sequence (P58681 27-1050): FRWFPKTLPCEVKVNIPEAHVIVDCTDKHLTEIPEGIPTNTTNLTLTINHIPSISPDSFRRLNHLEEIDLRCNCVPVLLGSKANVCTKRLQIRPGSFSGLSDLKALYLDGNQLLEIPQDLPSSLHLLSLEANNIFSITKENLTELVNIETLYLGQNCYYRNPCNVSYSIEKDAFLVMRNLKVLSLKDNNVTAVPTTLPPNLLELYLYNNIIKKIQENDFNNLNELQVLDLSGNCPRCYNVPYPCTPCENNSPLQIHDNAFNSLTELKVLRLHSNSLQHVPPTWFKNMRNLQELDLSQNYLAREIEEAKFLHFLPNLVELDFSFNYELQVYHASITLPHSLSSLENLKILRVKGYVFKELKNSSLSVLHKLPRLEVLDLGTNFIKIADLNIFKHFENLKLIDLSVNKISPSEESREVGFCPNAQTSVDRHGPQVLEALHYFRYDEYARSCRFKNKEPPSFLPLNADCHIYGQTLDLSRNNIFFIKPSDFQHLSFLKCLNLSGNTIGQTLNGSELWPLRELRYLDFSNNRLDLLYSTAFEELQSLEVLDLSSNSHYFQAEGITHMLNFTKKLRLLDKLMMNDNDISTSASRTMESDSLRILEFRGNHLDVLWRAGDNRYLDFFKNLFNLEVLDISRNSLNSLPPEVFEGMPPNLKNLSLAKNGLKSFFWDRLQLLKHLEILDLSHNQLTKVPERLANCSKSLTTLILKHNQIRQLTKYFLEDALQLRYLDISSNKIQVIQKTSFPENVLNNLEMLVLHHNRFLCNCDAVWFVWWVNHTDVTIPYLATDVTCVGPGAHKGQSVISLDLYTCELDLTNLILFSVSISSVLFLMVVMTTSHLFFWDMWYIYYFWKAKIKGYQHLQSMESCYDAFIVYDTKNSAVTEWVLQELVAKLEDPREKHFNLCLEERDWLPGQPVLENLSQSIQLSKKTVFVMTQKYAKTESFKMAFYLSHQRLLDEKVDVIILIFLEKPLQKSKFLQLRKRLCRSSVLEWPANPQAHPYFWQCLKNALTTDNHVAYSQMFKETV
Method: as §1, §2, §3

[3] = biological target: T3, human TLR2 (Homo sapiens, UniProt O60603); test: HEK-Blue hTLR2 NF-κB/AP-1 SEAP reporter assay; assay type: cell-based; conditions: HEK-Blue hTLR2 cells, 10 μg/mL to 10 pg/ml, 24 hours, OD at 655 nm, FIG. 3
T3 construct: host or cells: HEK293 (HEK-Blue™ hTLR2)
Method: as §1, §2, §3

[4] = test system: endogenous TLR2 and TLR7 in RAW-Blue™ Cells; test: RAW-Blue Cells NF-κB/AP-1 SEAP reporter assay; assay type: cell-based, mouse; conditions: 24 hours, OD at 655 nm, FIG. 4
Method: as §1, §2, §3

[5] = test system: plasmid DNA (pDNA); test: Gel shift (mobility shift) assay of pDNA complexation; assay type: binding; conditions: pDNA:molecule ratio 3:24 (w:w), 0.8% agarose gel, compared to pDNA alone
Outline: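 Complexes of pDNA with TLR7-TLR2 polyamine molecules run on 0.8% agarose in TAE at 135 V for 21 min, ethidium bromide stained and viewed under UV. Complexation scored as partial or complete retardation of pDNA migration versus pDNA alone, complexed pDNA appearing as a smear in wells.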

[6] = Nanoparticle (lipoplex) size by dynamic light scattering; conditions: 25° C., triplicate;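 also: lipoplexes of TLR7-TLR2 polyamine conjugates with plasmid DNA, formed over 30 min at room temperature in serum-free medium or 5% glucose, diameter in nm, PDI dimensionless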
[7] = test system: B16-F1 tumor; test: In vivo mouse B16-F1 tumor model, molecule alone; parameters: species or system C57BL/6 mice; conditions: by day 42, intra-tumoral injections, FIG. 8B
Method: Measurements were performed under gas anesthesia.
The second group received intra-tumoral injections of CL413 molecule alone (a TLR7-TLR2 Pam2CSK4-based molecule). Third and forth groups received intra-tumoral injections of the TLR2 ligand, Pam2CSK4 alone, and the TLR7 ligand alone, respectively. A fifth group received a combined treatment of Pam2CSK4 and TLR7 ligand, in solution at the equivalent molecule quantity of the respective TLR2 and TLR7 moieties in CL413 (in 100 μl Bionolyte G5® with Pluronic® F-68 2%) for a total of 3 injections.

T3 sequence (O60603 21-784): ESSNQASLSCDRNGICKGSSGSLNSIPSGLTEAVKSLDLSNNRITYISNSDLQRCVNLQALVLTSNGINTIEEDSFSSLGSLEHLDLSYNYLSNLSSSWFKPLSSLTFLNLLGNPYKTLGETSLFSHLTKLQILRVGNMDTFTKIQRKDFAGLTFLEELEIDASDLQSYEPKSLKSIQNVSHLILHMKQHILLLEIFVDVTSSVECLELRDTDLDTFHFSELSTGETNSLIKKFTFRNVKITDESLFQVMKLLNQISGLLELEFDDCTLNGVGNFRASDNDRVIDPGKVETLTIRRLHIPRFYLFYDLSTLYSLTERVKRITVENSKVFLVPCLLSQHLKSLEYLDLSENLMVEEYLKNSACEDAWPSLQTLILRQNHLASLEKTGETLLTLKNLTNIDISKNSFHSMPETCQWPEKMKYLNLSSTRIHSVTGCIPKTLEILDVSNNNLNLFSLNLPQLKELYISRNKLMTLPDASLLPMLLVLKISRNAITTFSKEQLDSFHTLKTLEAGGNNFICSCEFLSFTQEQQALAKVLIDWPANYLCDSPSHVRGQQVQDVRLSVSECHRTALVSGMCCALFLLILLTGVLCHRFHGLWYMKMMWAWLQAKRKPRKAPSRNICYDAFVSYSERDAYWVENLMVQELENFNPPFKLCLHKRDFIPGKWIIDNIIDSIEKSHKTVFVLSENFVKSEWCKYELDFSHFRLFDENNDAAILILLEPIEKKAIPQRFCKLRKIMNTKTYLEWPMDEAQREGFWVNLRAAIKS

ability to activate hTLR7 [1] | ability to activate mTLR7 [2] | ability to activate hTLR2 [3] | Mean Diameter ([6]; complexes with pDNA 3:24 (w:w), dynamic light scattering) | PDI ([6]; polydispersity index of complexes with pDNA 3:24 (w:w)) | Compound | ability to activate endogenous TLR2 and TLR7 in RAW-Blue Cells [4] | ability to complex pDNA (retardation of pDNA migration in agarose gel) [5] | mice still alive (survival) [7] [%]
activate hTLR7 | activate mTLR7 | activate hTLR2 | 165.6 nm and 160.0 nm and 148.1 nm | 0.255 and 0.241 and 0.23 | CCCCCCCCCCCCCCCC(=O)OCC(CSC[C@H](N)C(=O)NCCCC[C@H](NC(=O)CNC(=O)c1ccc(Cn2c(O)nc3c(N)nc(NCCCC)nc32)cc1)C(=O)NCCCNCCCCNCCCN)OC(=O)CCCCCCCCCCCCCCC (stereo partly drawn) [CL487, (6R,13S)-6,27-diamino-13-(2-(4-((6-amino-2-(butylamino)-8-hydroxy-9H-purin-9-yl)methyl)benzamido)acetamido)-7,14-dioxo-4-thia-8,15,19,24-tetraazaheptacosane-1,2-diyl dipalmitate] | activate endogenous TLR2 and TLR7 | inability to migrate through an agarose gel | 
 |  |  |  |  | dipalmitoyl-S-glyceryl cysteine-serine-(lysine)4 [Pam2CSK4, reference compound] |  |  | 60
